In patent US20160015725A1, “METHODS OF CONTROLLING TUMOR BIOENERGETICS NETWORKS” (THE WISTAR INSTITUTE OF ANATOMY AND BIOLOGY, priority 2012, published 2016):

Experiments:
[1] = system: TRAMP (Transgenic Adenocarcinoma of the Mouse Prostate) mice; details: cited from earlier work
hexokinase = assay: Hexokinase activity in mitochondrial fractions of treated cells; type: cell-based, human; details: LN229 mitochondrial fractions, 5 h
Description: HK activity in LN229 cells was measured as the total glucosephosphorylating activity using a standard G6PDH-coupled assay kit (BioVision). Mitochondria isolated from Gamitrinib- or 17-AAG-treated LN229 cells, or cultures transfected with various siRNAs were homogenized in cold PBS, followed by centrifugation at 1000 g for 10 min at 4° C. HK activity was determined by analysis of G6P-dependent conversion of NADP to NADPH in the presence of excess […] in the presence of 2 mM glucose, and quantification of absorbance at 450 nm. All assays were performed at 25° C. under conditions of linear HK-limited NADPH formation.

BRAF WT melanoma cells = assay: Melanoma cell viability by MTT, BRAF WT; type: cell-based, human
Description: Various cell types were seeded in triplicate onto 96-well plates at 4×10^3 cells/well, treated with vehicle, Gamitrinib or 17-AAG (0-20 μM) for 12 h, and analyzed for changes in metabolic activity by an MTT assay. For determination of apoptosis, LN229 cells ([…]) were labeled for annexin V and propidium iodide (PI) (BD Biosciences), and analyzed by multiparametric flow cytometry (BD).

tumor cells = assay: ER UPR markers (Western blotting, Xbp1 splicing, RT-qPCR); type: cell-based, human
hexokinase-II (HK-II) = assay: Subcellular fractionation and Western blotting of hexokinases; type: cell-based, human; details: LN229, 5 h
Description: Mitochondrial fractions were isolated from Gamitrinib treated LN229 cells (0-20 μM for 5 h) using an ApoAlert™ cell fractionation kit (CLONTECH). Briefly, LN229 cells were mechanically disrupted by 60 strokes with a Dounce homogenizer in isolation buffer containing 1 mM DTT plus protease inhibitor cocktail. Cell debris was removed by centrifugation at 700 g for 10 min. The supernatant was further centrifuged at 10,000 g for 25 min, and supernantants or mitochondrial pellets were processed for further analysis.
For Western blotting, protein lysates were prepared from the different cell types in RIPA Buffer (150 mM NaCl, 1.0% Triton X-100, 0.5% sodium deoxycholate, 0.1% SDS, 50 mM Tris, pH 8.0) containing EDTA-free Protease Inhibitor Cocktail (Roche) and Phosphatase Inhibitor Cocktail 2 and 3 (Sigma Aldrich). Equal amounts of protein lysates were separated by SDS gel electrophoresis, transferred to PVDF membranes and incubated with primary antibodies of various specificities. Protein bands were detected by chemiluminescence.

Structure (SMILES): CO[C@H]1/C=C\C=C(/C)C(=O)NC2=CC(=O)C(NCCCCCC[P+](c3ccccc3)(c3ccccc3)c3ccccc3)=C(C[C@@H](C)C[C@H](OC)[C@H](O)[C@@H](C)/C=C(\C)[C@@H]1OC(N)=O)C2=O [Gamitrinib]
- residual prostatic adenocarcinoma at end of experiment ([1]; 5 mg/kg i.p., 3 d on/2 d off): only one animal displayed a small residual area of prostatic adenocarcinoma
- Prostatic Intraepithelial Neoplasia (PIN) ([1]; systemic treatment): did not affect Prostatic Intraepithelial Neoplasia (PIN)
- primary and metastatic prostate cancer growth ([1]; systemic treatment): inhibited primary and metastatic prostate cancer growth
- hexokinase activity (hexokinase): a decrease in hexokinase activity
- IC50 (BRAF WT melanoma cells): 6 ± 1.4 µM
- Grp78, CHOP or C/EBPβ expression, combined with 2-DG (tumor cells; Gamitrinib combined with 2-DG): translational suppression of Grp78, CHOP or C/EBPβ
- mRNA expression of CHOP, C/EBPβ and Grp78 (tumor cells; quantitative PCR): time-dependent upregulation of ER UPR markers, CHOP, C/EBPβ and Grp78
- C/EBPβ and CHOP expression (tumor cells; tumor cells): induction of transcription factors, CCAAT-enhancer binding protein (C/EBPβ) and C/EBP homology protein (CHOP)
- Grp78 expression (tumor cells; tumor cells): upregulation of the ER chaperone, Grp78
- Xbp1 mRNA splicing (tumor cells; tumor cells): de novo mRNA splicing, i.e. activation, of its target, X-Box Protein-1, Xbp1
- eIF2α phosphorylation (tumor cells; tumor cells): transient phosphorylation of PERK-regulated eIF2α
- time to induction of ER UPR (tumor cells; tumor cells): ≤ 1 h
- IRE-1 expression (tumor cells; within 1 h): increased expression of Inositol-Requiring-1 (IRE-1) kinase
- HK-II localization (mitochondria vs cytosol) (hexokinase-II (HK-II)): concentration-dependent release of hexokinase-II (HKII) from mitochondria
